Our source for the activation and EC50 values is patent US12415793B2, “Modulators of TMEM16A for treating respiratory disease” (TMEM16A Limited, priority 2020, dated 2025).

This test has as its target T1, human TMEM16A (TMEM16Aabc variant) (Homo sapiens, UniProt Q5XXA6, DEL476-501).
T1 sequence (Q5XXA6 with tags, fused parts or gaps isoform Q5XXA6-5 DEL539-564): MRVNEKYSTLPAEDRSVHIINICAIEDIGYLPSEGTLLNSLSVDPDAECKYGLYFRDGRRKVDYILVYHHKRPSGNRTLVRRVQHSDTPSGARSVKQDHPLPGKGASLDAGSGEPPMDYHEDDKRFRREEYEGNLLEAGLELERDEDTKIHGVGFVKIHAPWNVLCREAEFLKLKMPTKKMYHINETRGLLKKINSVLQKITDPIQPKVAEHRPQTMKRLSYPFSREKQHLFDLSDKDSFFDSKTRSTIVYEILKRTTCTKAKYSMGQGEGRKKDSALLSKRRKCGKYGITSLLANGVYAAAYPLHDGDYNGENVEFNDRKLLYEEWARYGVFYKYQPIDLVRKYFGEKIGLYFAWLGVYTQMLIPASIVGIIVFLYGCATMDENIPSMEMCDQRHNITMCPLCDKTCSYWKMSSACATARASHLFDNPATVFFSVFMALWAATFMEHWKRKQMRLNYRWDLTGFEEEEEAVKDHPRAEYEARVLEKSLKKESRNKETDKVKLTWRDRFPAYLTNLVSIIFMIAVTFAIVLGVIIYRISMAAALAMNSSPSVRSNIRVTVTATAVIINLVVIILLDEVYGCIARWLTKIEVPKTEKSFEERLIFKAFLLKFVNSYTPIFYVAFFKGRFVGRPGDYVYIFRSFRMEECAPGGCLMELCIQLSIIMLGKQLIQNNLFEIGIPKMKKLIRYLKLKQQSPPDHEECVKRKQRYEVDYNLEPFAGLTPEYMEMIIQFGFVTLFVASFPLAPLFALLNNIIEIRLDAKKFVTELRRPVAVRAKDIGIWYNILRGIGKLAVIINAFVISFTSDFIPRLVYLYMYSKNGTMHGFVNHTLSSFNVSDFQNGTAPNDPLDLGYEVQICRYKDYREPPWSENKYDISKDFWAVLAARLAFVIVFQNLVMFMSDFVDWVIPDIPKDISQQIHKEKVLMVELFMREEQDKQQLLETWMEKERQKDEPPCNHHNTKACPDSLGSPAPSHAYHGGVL
Description: Automated whole-cell patch clamp (Qpatch) assay to detect TMEM16A activity in recombinant cells. The class given is cell-based. Particulars: for activation at 3.33 µM: 3.33 μM solution of test compound, percentage increase of baseline TMEM16A current, FRT cells stably expressing human TMEM16A, intracellular calcium at EC20, +70 mV, read-out: % Potentiation @ 3.33 μM Avg; for EC50: calculated from cumulative concentration response curve, FRT-TMEM16A cells, whole-cell patch clamp (Qpatch). The protocol: Automated Whole-Cell Patch Clamp Assay to Detect TMEM16A Activity in Recombinant Cells
Cell Culture and Preparation
Fisher rat thyroid (FRT) cells stably expressing human TMEM16A (TMEM16Aabc variant; Dr Luis Galietta, Insituto Giannina, Italy) were cultured in T-75 flasks in Hams F-12 media with Coon's modification (Sigma) supplemented with 10% (v/v) foetal bovine serum, penicillin-streptomycin (10,000 U/mL/10000 μg/mL), G-418 (750 μg/mL), L-glutamine (2 mM) and sodium bicarbonate solution (7.5% v/v). At ˜90% confluence cells were harvested for experiments by detachment with a 2:1 (v/v) mixture of Detachin (BMS Biotechnology) and 0.25% (w/v) trypsin-EDTA. Cells were diluted to a density of 3.5-4.5×10^6 cells/mL with media consisting of CHO-S-SFM II (Sigma), 25 mM HEPES (Sigma) and Soy bean trypsin inhibitor (Sigma).
Whole-Cell Patch Clamp Recording
FRT-TMEM16A cells were whole-cell patch clamped using an automated planar patch clamp system (Qpatch, Sophion). Briefly, once high resistance (GOhm) seals were established between the cells and the planar recording array the patch was ruptured using suction pulses to establish the whole-cell recording configuration of the patch clamp technique. The assay employed the following solutions (all reagents Sigma): • Intracellular solution (mM): N-methyl-D-glucamine 130, CaCl2 18.2, MgCl2 1, HEPES 10, EGTA 10, BAPTA 20, Mg-ATP 2, pH 7.25, 325mOsm with sucrose. • Extracellular solution (mM): N-methyl-D-glucamine 130, CaCl2 2, MgCl2 1, HEPES 10, pH 7.3, 320 mOsm with sucrose.
The intracellular solution buffers intracellular calcium at levels required to give ˜20% activation of the maximal TMEM16A mediated current (EC20 for calcium ions). Cells were voltage clamped at a holding potential of −70 mV and a combined voltage step (to +70 mV)/ramp (−90 my to +90 mV) was applied at 0.05 Hz. After a period of current stabilisation test compounds, solubilised in 100% (v/v) DMSO and subsequently diluted into extracellular solution, were applied to generate a cumulative concentration response curve. Each concentration of test compound was incubated for 5 minutes before addition of the next concentration. After the final concentration was tested a supramaximal concentration of either a known active positive modulator or the TMEM16A inhibitor, CaCCinhA01 (Del La Fuente et al, 2008) was added to define the upper and lower limits of the assay.
Compound activity was quantified by measuring the increase in current upon compound addition and expressing this as a percentage increase of baseline TMEM16A current level. Percentage increases in current were determined for each concentration and the data plotted as a function of concentration using either the Qpatch software or Graphpad Prism v6.05 providing the concentration which gave 50% of its maximal effect (EC50) and maximum efficacy (percentage of baseline increase).
In FIG. 1, IBL equals baseline current, I[#1] equals the peak current during test compound concentration 1 incubation period and so on.
Peak TMEM16A current at +70 mV was plotted as a function of time over the assay period. Baseline current (IBL) was measured after a period of stabilisation. The increase in current for each compound addition was determined by taking the peak current during the incubation period and subtracting the current from the previous recording period and then expressing this as a percentage of the baseline current. For test compound concentration 1 in FIG. 1 this is:
For each additional concentration tested the increase in current was determined by subtracting the current from the previous incubation period and normalising the baseline value—for test concentration 2 in FIG. 1 this is:
The values for each test concentration were plotted as a cumulative function of concentration e.g. for test concentration two this would be the sum of the peak changes measured during concentration one plus concentration two.

For `O=C(Cc1cc(Cl)ccc1O)Nc1ccnc(NC(=O)C2CCCCC2)c1` [Example 7.1, N-[4-[[2-(5-Chloro-2-hydroxy-phenyl)acetyl]amino]-2-pyridyl]cyclohexane carboxamide], the activation at 3.33 µM stood at 120% and the EC50 is 1110 nM. For the compound `CC(C)(C#N)NC(=O)c1ccc(NC(=O)Cc2cc(O)c(C(C)(C)C)cc2F)s1` [Example 8, 5-[[2-(4-tert-Butyl-2-fluoro-5-hydroxy-phenyl)acetyl]amino]-N-(1-cyano-1-methyl-ethyl)thiophene-2-carboxamide], the activation at 3.33 µM was determined as 134% and the EC50 was 85 nM. The corresponding values for `CC(C)(C)C(=O)Nc1cc(NC(=O)Cc2cc(Cl)ccc2O)ccn1` [Example 7, N-[4-[[2-(5-Chloro-2-hydroxy-phenyl)acetyl]amino]-2-pyridyl]-2,2-dimethyl-propanamide] are 156% and 615 nM. For the compound `CC(C)(C)C(=O)Nc1ccnc(C(=O)NCc2cc(Cl)ccc2O)c1` [Example 3, N-[(5-Chloro-2-hydroxy-phenyl)methyl]-4-(2,2-dimethylpropanoylamino)pyridine-2-carboxamide], the activation at 3.33 µM stood at 81.3%.

For the compound `CC(C)(C)NC(=O)c1cccc(C(=O)NCc2ccccc2O)c1` [Example 5, N1-tert-Butyl-N3-[(2-hydroxyphenyl)methyl]benzene-1,3-dicarboxamide], the activation at 3.33 µM is 41.2% and the EC50 was 2910 nM. Take `CC(C)(C)C(=O)Nc1cccc(NC(=O)Cc2cc(Cl)ccc2O)c1` [Example 6, N-[3-[[2-(5-Chloro-2-hydroxy-phenyl)acetyl]amino]phenyl]-2,2-dimethyl-propanamide]: the activation at 3.33 µM is 68.1% and the EC50 is 992 nM. Take `CC(C)(C)NC(=O)c1cc(NC(=O)Cc2cc(Cl)ccc2O)cs1` [Example 1.2, N-tert-Butyl-4-[[2-(5-chloro-2-hydroxy-phenyl)acetyl]amino]thiophene-2-carboxamide]: the activation at 3.33 µM was determined as 237% and the EC50 is 400 nM. The matching figures for `CC(C)(C)NC(=O)c1csc(NC(=O)Cc2cc(Cl)ccc2O)c1` [Example 1.1, N-tert-Butyl-5-[[2-(5-chloro-2-hydroxy-phenyl)acetyl]amino]thiophene-3-carboxamide]: 184% and 440 nM. As for `CC(C)(C)NC(=O)c1cc(C(=O)NCc2ccccc2O)ccn1` [Example 4, N2-tert-Butyl-N4-[(2-hydroxyphenyl)methyl]pyridine-2,4-dicarboxamide], the activation at 3.33 µM came to 35.2%. For the compound `CC(C)(CO)c1cc(F)c(CC(=O)Nc2ccc(C(=O)NC3(C(F)(F)F)CC3)s2)cc1O` [Example 9, 5-[[2-[2-Fluoro-5-hydroxy-4-(2-hydroxy-1,1-dimethyl-ethyl)phenyl]acetyl]amino]-N-[1-(trifluoromethyl)cyclopropyl]thiophene-2-carboxamide], the activation at 3.33 µM is 134% and the EC50 is 98 nM. As for `CC(C)(C)NC(=O)c1ccc(NC(=O)Cc2cc(Cl)ccc2O)s1` [Example 1, N-tert-Butyl-5-[[2-(5-chloro-2-hydroxy-phenyl)acetyl]amino]thiophene-2-carboxamide], the activation at 3.33 µM is 107% and the EC50 is 42 nM. For `CC(C)(C)C(=O)Nc1cccc(C(=O)NCc2cc(Cl)ccc2O)c1` [Example 2, N-[(5-Chloro-2-hydroxy-phenyl)methyl]-3-(2,2-dimethylpropanoylamino)benzamide], the activation at 3.33 µM came out at 127%.
